Reference: PubChem BioAssay AID1963862 (Molecular Pharmacology Branch, DTP, NCI, 2024)

Test system: KRAS patient-derived spheroids with HUVEC/MSC, viability
Assay: Anticancer human tumor 941728-121-R-J1-PDC patient-derived lung adenocarcinoma cell line growth inhibition [KRAS2]
Details: for IC50: curve of first compound; for viability, T/C: stronger effect = lower value
Source text: Multicellular complex tumor spheroid response to RAS pathway inhibitors in combination with a targeted agents in patient-derived cell lines with oncogenic KRAS variants from multiple cancer types
A high-throughput screen of multi-cell type tumor spheroids was designed to identify active combinations of targeted small molecules and KRAS pathway inhibitors. Complex spheroids include a stromal component modeled by human endothelial cells (HUVEC) and fibroblasts modeled by human mesenchymal stem cells (MSCs). The concentration ranges selected for each drug and investigational agent were based upon clinically achievable concentrations if the clinical Cmax of the agent was known.
Compounds. The drugs and investigational agents: BI-3406 (NSC825286), BAY-293 (NSC824723), batoprotafib (TNO155; NSC825523), sotorasib (AMG 510; NSC818433), MRTX1257 (NSC819558), elimusertib (BAY 1895344; NSC800525), molibresib (GSK525762; NSC774829), temuterkib (LY3214996; NSC803410), venetoclax (NSC766270), alisertib (NSC759677), olaparib (NSC753686), talazoparib (NSC767125), erdafitinib (NSC781556), ipatasertib (NSC767898), cabozantinib (NSC761068), nintedanib (NSC756659), abemaciclib (NSC768073), docetaxel (NSC628503), trametinib (NSC758246), and sapanisertib (NSC764658) were obtained from the National Cancer Institute (NCI) Developmental Therapeutics Program Chemical Repository. The FDA-approved anticancer drug set is available from the Developmental Therapeutics Program. […] The stock solutions were prepared in dimethyl sulfoxide (DMSO, Sigma-Aldrich, St. Louis, MO, cat. D2650) at 800-fold the tested concentration and stored at -70 degrees C prior to their use. All drugs and investigational agents were tested over a range starting from a high concentration at or near the clinical Cmax and decreasing in half-log increments. If the clinical Cmax for an agent had not been determined, the highest concentration tested was 10 microM.
Cell Culture. All cells were maintained in an incubator at 37 degrees C and 5% CO2 with 95% humidity. The PDC lines were cultured according to standard operating procedures established by the NCI PDMR (https://pdmr.cancer.gov/sops/default.htm). Briefly, all PDCs were thawed and cultured in Matrigel-coated flasks prepared with a working solution of 1X Ham's F-12 nutrient mix, without supplementation (Invitrogen, Waltham, MA, cat. 11765054), 100 U/mL penicillin-streptomycin (Invitrogen, cat. 15140122), and 2.5% Matrigel (Corning Inc., Corning, NY, cat. 354248) for the first three passages. All PDCs were cultured in complete DMEM/F-12 media containing advanced DMEM/F-12 (Invitrogen, cat. 12634028), 4.9% defined fetal bovine serum, heat inactivated (HyClone Laboratories Inc., Logan, UT, cat. SH30070.03HI), 389 ng/mL hydrocortisone (Sigma-Aldrich, cat. H4001), 9.7 ng/mL human EGF recombinant protein (Invitrogen, cat. PHG0313), 23.4 microg/mL adenine (Sigma-Aldrich, cat. A2786), 97.3 U/mL penicillin-streptomycin (Invitrogen, cat. 15140122), 1.9 mM L-glutamine (Invitrogen, cat. 25030081), and 9.7 microM Y-27632 dihydrochloride (Tocris Bioscience, Bristol, United Kingdom, cat. 1254). The PDCs were cultured in complete DMEM/F12 media without 9.7 microM Y-27632 dihydrochloride for at least two passages prior to the screen. The established cell line HOP-62 was cultured in RPMI 1640 medium, HEPES (Invitrogen, cat. 22400105) with 10% defined fetal bovine serum (HyClone Laboratories Inc., cat. SH30070.03) and 2 mM L-glutamine (Invitrogen, cat. 25030081). The pooled donor HUVEC were cultured in endothelial cell growth medium 2 (PromoCell, Heidelberg, Germany, cat. C-22011) and the hMSC were cultured in mesenchymal stem cell growth medium 2 (PromoCell, cat. C-28009). For all experiments, HUVEC and hMSC were used at passages </=5, while the malignant cell lines were used at passages </=15. […]

[1] = second compound 0.1 µM, first compound 0.0316 µM
[2] = second compound 0.1 µM, first compound 0.1 µM
[3] = second compound 0.1 µM, first compound 0.316 µM
[4] = second compound 0.1 µM, first compound 1 µM
[5] = second compound 0.1 µM, first compound 3.16 µM
[6] = second compound 0.1 µM, first compound 10 µM
[7] = second compound 0.316 µM, first compound 0.0316 µM
[8] = second compound 0.316 µM, first compound 0.1 µM
[9] = second compound 0.316 µM, first compound 0.316 µM
[10] = second compound 0.316 µM, first compound 1 µM
[11] = second compound 0.316 µM, first compound 3.16 µM
[12] = second compound 0.316 µM, first compound 10 µM
[13] = second compound 1 µM, first compound 0.0316 µM
[14] = second compound 1 µM, first compound 0.1 µM
[15] = second compound 1 µM, first compound 0.316 µM
[16] = second compound 1 µM, first compound 1 µM
[17] = second compound 1 µM, first compound 3.16 µM
[18] = second compound 1 µM, first compound 10 µM
[19] = second compound 3.16 µM, first compound 0.0316 µM
[20] = second compound 3.16 µM, first compound 0.1 µM
[21] = second compound 3.16 µM, first compound 0.316 µM
[22] = second compound 3.16 µM, first compound 1 µM
[23] = second compound 3.16 µM, first compound 3.16 µM
[24] = second compound 3.16 µM, first compound 10 µM
[25] = second compound 10 µM, first compound 0.0316 µM
[26] = second compound 10 µM, first compound 0.1 µM
[27] = second compound 10 µM, first compound 0.316 µM
[28] = second compound 10 µM, first compound 1 µM
[29] = second compound 10 µM, first compound 3.16 µM
[30] = second compound 10 µM, first compound 10 µM
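Also: spheroids exposed to agents for seven days before readout.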

SMILES | IC50 (second compound 0.1 µM) | IC50 (second compound 0.316 µM) | IC50 (second compound 1 µM) | IC50 (second compound 3.16 µM) | IC50 (second compound 10 µM) | viability, T/C [1] | viability, T/C [2] | viability, T/C [3] | viability, T/C [4] | viability, T/C [5] | viability, T/C [6] | viability, T/C [7] | viability, T/C [8] | viability, T/C [9] | viability, T/C [10] | viability, T/C [11] | viability, T/C [12] | viability, T/C [13] | viability, T/C [14] | viability, T/C [15] | further results
COc1cc(Nc2ncc3c(n2)-c2ccc(Cl)cc2C(c2c(F)cccc2OC)=NC3)ccc1C(=O)O + C=CC(=O)N1CCN(c2nc(=O)n(-c3c(C)ccnc3C(C)C)c3nc(-c4c(O)cccc4F)c(F)cc23)C(C)C1 | < 31.6 nM | < 31.6 nM | < 31.6 nM | < 31.6 nM | < 31.6 nM | 24.9% | 17.2% | 16% | 22.7% | 25.7% | 17.3% | 29.3% | 26.2% | 26.3% | 25.5% | 24.4% | 16.7% | 17.9% | 27.4% | 31% | viability, T/C [16]: 26.4%; viability, T/C [17]: 24.1%; viability, T/C [18]: 21%; viability, T/C [19]: 25.5%; viability, T/C [20]: 29.6%; viability, T/C [21]: 31.5%; viability, T/C [22]: 29%; viability, T/C [23]: 25.7%; viability, T/C [24]: 22.4%; viability, T/C [25]: 37%; viability, T/C [26]: 38.5%; viability, T/C [27]: 35.2%; viability, T/C [28]: 32%; viability, T/C [29]: 28.1%; viability, T/C [30]: 25.8%
COc1cc2nccc(Oc3ccc(NC(=O)C4(C(=O)Nc5ccc(F)cc5)CC4)cc3)c2cc1OC + C=CC(=O)N1CCN(c2nc(=O)n(-c3c(C)ccnc3C(C)C)c3nc(-c4c(O)cccc4F)c(F)cc23)C(C)C1 | < 31.6 nM | < 31.6 nM | < 31.6 nM | < 31.6 nM | < 31.6 nM | 14.6% | 14.5% | 12.8% | 11.6% | 7.75% | 8.03% | 15% | 15.7% | 11.6% | 11.6% | 6.81% | 8.86% | 17.4% | 16.8% | 14.5% | viability, T/C [16]: 12.3%; viability, T/C [17]: 6.93%; viability, T/C [18]: 8.12%; viability, T/C [19]: 17.6%; viability, T/C [20]: 16.4%; viability, T/C [21]: 15.3%; viability, T/C [22]: 16.7%; viability, T/C [23]: 7.9%; viability, T/C [24]: 8.84%; viability, T/C [25]: 19.1%; viability, T/C [26]: 19.5%; viability, T/C [27]: 15.3%; viability, T/C [28]: 13%; viability, T/C [29]: 8.1%; viability, T/C [30]: 9.93%
